Values after ≈ are worked out from the molar mass of the structure shown. One block for each compound: values may come before it.
Columns and labels:
VRSA10 = assay: MIC/MBC clinical isolate panel (Table 3); assay type: cell-based, S. aureus; conditions: Staphylococcus aureus, Table 3, VRSA10
Description: (§1) MRSA clinical isolates, and vancomycin-resistant Staphylococcus aureus (VRSA) strain were obtained through the Network of Antimicrobial Resistance in Staphylococcus aureus (NARSA) program. In addition, vancomycin-resistant Enterococcus faecium (VRE) strain was obtained from the ATCC. Bacteria were cultured in cation-adjusted Mueller Hinton broth in a 96-well plate. Compounds, using triplicate samples, were added to the plate and serially diluted. […] Plates were visually inspected and the MIC was categorized as the concentration at which no visible growth of bacteria was observed. The average of triplicate MIC determinations is reported.
(§2) The minimum inhibitory concentration (MIC) of tested compounds and control antibiotics were determined using the broth microdilution method in accordance with the recommendations contained in the Clinical and Laboratory Standards Institute guidelines, against methicillin-sensitive (ATCC 6538 and NRS107), methicillin-resistant (MRSA), and vancomycin-resistant (VRSA) Staphylococcus aureus, Staphylococcus epidermidis, Enterococcus faecalis, E. faecium, Listeria monocytogenes, and Streptococcus pneumoniae clinical isolates. A bacterial solution equivalent to 0.5 McFarland standard was prepared and diluted in cation-adjusted Mueller-Hinton broth (CAMHB) to achieve a bacterial concentration of about 5×10^5 CFU/mL and seeded in 96-well plates. Enterococcus faecium was diluted in brain heart infusion broth. Enterococcus faecalis, Streptococcus pneumonia and Listeria monocytogenes were diluted in tryptone soya broth (TSB). Compounds and control drugs were added in the first row of 96-well plates and serially diluted (to achieve a concentration gradient ranging from 128 to 1 μg/mL). Plates were then incubated aerobically at 37° C. for at least 18 hours. The minimum bactericidal concentration (MBC) of the active compounds was tested by plating 5 μL from wells with no growth onto Tryptic soy agar (TSA) plates.

VRE ATCC 700221 = assay: MIC/MBC clinical isolate panel (Table 3); assay type: cell-based, Enterococcus faecium; conditions: Enterococcus, Table 3, VRE ATCC 700221
Description: as §1, §2

MRSA NRS386 = assay: MIC/MBC S. aureus strains (Table 8); assay type: cell-based; conditions: Staphylococcus aureus
Description: (§3) A bacterial solution equivalent to 0.5 McFarland standard was prepared and diluted in cation-adjusted Mueller-Hinton broth (CAMHB) to achieve a bacterial concentration of about 5×10^5 CFU/mL and seeded in 96-well plates. Enterococcus faecium was diluted in brain heart infusion broth. Enterococcus faecalis, Streptococcus pneumonia and Listeria monocytogenes were diluted in tryptone soya broth (TSB).

MRSA NRS384 (USA300) = assay: MIC/MBC S. aureus strains (Table 8); assay type: cell-based; conditions: Staphylococcus aureus
Description: as §3

MRSA NRS119 = assay: MIC/MBC S. aureus strains (Table 8); assay type: cell-based; conditions: Staphylococcus aureus
Description: as §3

MRSA NRS123 (USA400) = assay: MIC/MBC S. aureus strains (Table 8); assay type: cell-based; conditions: Staphylococcus aureus
Description: as §3

NRS72 (MSSA) = assay: MIC/MBC clinical isolate panel (Table 3); assay type: cell-based, S. aureus; conditions: Staphylococcus aureus, Table 3, NRS72 (MSSA)
Description: (§4) Bacteria were cultured in cation-adjusted Mueller Hinton broth in a 96-well plate. Compounds, using triplicate samples, were added to the plate and serially diluted. […] Plates were visually inspected and the MIC was categorized as the concentration at which no visible growth of bacteria was observed. The average of triplicate MIC determinations is reported.
as §3

NRS382 (MRSA USA100) = assay: MIC/MBC clinical isolate panel (Table 3); assay type: cell-based, S. aureus; conditions: Staphylococcus aureus, Table 3, NRS382 (MRSA USA100)
Description: as §4, §3

NRS123 (MRSA USA400) = assay: MIC/MBC clinical isolate panel (Table 3); assay type: cell-based, S. aureus; conditions: Staphylococcus aureus; Table 3; NRS123 (MRSA USA400)
Description: as §4, §3

NRS384 (MRSA USA300) = assay: MIC/MBC clinical isolate panel (Table 3); assay type: cell-based, S. aureus; conditions: Staphylococcus aureus; Table 3; NRS384 (MRSA USA300)
Description: as §4, §3

NRS383 (MRSA USA200) = assay: MIC/MBC clinical isolate panel (Table 3); assay type: cell-based, S. aureus; conditions: Staphylococcus aureus, Table 3, NRS383 (MRSA USA200)
Description: as §4, §3

VRS12 (VRSA) = assay: MIC/MBC S. aureus strains (Table 8); assay type: cell-based; conditions: Staphylococcus aureus, Table 8, VRS12 (VRSA); for MBC: read-out: MBC
Description: as §2

VRS10 (VRSA) = assay: MIC/MBC S. aureus strains (Table 8); assay type: cell-based; conditions: Staphylococcus aureus, Table 8, VRS10 (VRSA); for MBC: read-out: MBC
Description: as §2

[1] = test system: human colorectal (Caco-2) cell; assay: In vitro cytotoxicity against Caco-2 cells (MTS); assay type: cell-based; conditions: at 32 μg/mL
Description: Tested compounds were assayed (at concentrations of 16, 32, and 64 μg/mL) against a human colorectal (Caco-2) cell to determine the potential toxic effect to mammalian cells in vitro. Briefly, cells were cultured in Dulbecco's Modified Eagle Medium (DMEM) supplemented with 20% fetal bovine serum (FBS), non-essential amino acids (1×), and penicillin-streptomycin at 37° C. with CO2 (5%). Control cells received DMSO alone at a concentration equal to that in drug-treated cell samples. The cells were incubated with the compounds (in triplicate) in a 96-well plate at 37° C. with CO2 (5%) for two hours. The assay reagent MTS 3-(4,5-dimethylthiazol-2-yl)-5-(3-carboxymethoxyphenyl)-2-(4-sulfophenyl)-2H-tetrazolium) (Promega, Madison, Wis., USA) was subsequently added and the plate was incubated for four hours. Absorbance readings (at OD490) were taken using a kinetic microplate reader (Molecular Devices, Sunnyvale, Calif., USA). The quantity of viable cells after treatment with each compound was expressed as a percentage of the viability of DMSO-treated control cells (average of triplicate wells±standard deviation). The toxicity data was analyzed via a two-way ANOVA, with post hoc Sidak's multiple comparisons test (P<0.05), utilizing GraphPad Prism 6.0 (GraphPad Software, La Jolla, Calif.).

S. aureus NRS107 = assay: MIC/MBC S. aureus strains (Table 8); assay type: cell-based, Staphylococcus aureus; conditions: Staphylococcus aureus; Table 8; S. aureus NRS107
Description: as §3

MRSA (USA300) = assay: Time-kill assay; assay type: cell-based, Staphylococcus aureus; conditions: 3.0×MIC
Description: Aliquots (100 μL) were taken from each sample after 2, 4, 6, 8, 10, 12, and 24 hours, serially diluted in phosphate-buffered saline, and transferred to Trypticase soy agar (TSA) (Becton, Dickinson and Company, Sparks, Md., USA) plates. Plates were incubated at 37° C. for at least 16 hours before counting viable CFU/mL to determine the time required to reduce the bacterial cell count by 3-log10.

S. aureus ATCC 6538 = assay: MIC/MBC S. aureus strains (Table 8); assay type: cell-based; conditions: Staphylococcus aureus, ATCC6538
Description: as §3

MRSA NRS385 = assay: MIC/MBC S. aureus strains (Table 8); assay type: cell-based; conditions: Staphylococcus aureus
Description: as §3

[2] = test system: Enterococcus faecalis ATCC 51299 (VRE); assay: MIC/MBC Gram-positive pathogens (Table 9); assay type: cell-based; conditions: Table 9; Enterococcus faecalis ATCC 51299 (VRE)
Description: as §3

[3] = test system: Listeria monocytogenes ATCC 19111; assay: MIC/MBC Gram-positive pathogens (Table 9); assay type: cell-based; conditions: ATCC19111; Table 9; Listeria monocytogenes ATCC 19111
Description: as §3

[4] = test system: Methicillin-resistant Staphylococcus epidermidis NRS101; assay: MIC/MBC Gram-positive pathogens (Table 9); assay type: cell-based
Description: as §3

[5] = test system: Enterococcus faecium ATCC 700221 (VRE); assay: MIC/MBC Gram-positive pathogens (Table 9); assay type: cell-based; conditions: Table 9; Enterococcus faecium ATCC 700221 (VRE); read-out: MIC
Description: as §2

MRSA (2658 RCMB) = assay: MIC against MRSA (2658 RCMB), broth dilution; assay type: cell-based, Staphylococcus aureus; conditions: Staphylococcus aureus; Table 7; initial screening, MRSA (2658 RCMB); read-out: minimum inhibitory concentration (MIC)
Description: as §4, §3

MIC (VRSA10; read-out: MIC): 1 µg/mL (≈ 2.96 µM)
MIC (VRE ATCC 700221; read-out: MIC): 1 µg/mL (≈ 2.96 µM)
MIC (MRSA NRS384 (USA300)): 1 µg/mL (≈ 2.96 µM)
MIC (MRSA NRS119): 32 µg/mL (≈ 94.9 µM)
MIC (MRSA NRS123 (USA400)): 1 µg/mL (≈ 2.96 µM)
MIC (NRS72 (MSSA); read-out: MIC): 1 µg/mL (≈ 2.96 µM)
MIC (NRS382 (MRSA USA100); read-out: MIC): 1 µg/mL (≈ 2.96 µM)
MIC (NRS383 (MRSA USA200); read-out: MIC): 1 µg/mL (≈ 2.96 µM)
SMILES: CC(=O)NC[C@H]1CN(c2ccc(N3CCOCC3)c(F)c2)C(=O)O1 [Linezolid, linezolid]
MBC (VRSA10; read-out: MBC): 2 µg/mL (≈ 5.93 µM)
MBC (VRE ATCC 700221; read-out: MBC): 32 µg/mL (≈ 94.9 µM)
MBC (MRSA NRS386): 64 µg/mL (≈ 190 µM)
MBC (MRSA NRS119): > 64 µg/mL
MBC (NRS72 (MSSA)): 2 µg/mL (≈ 5.93 µM)
MBC (NRS382 (MRSA USA100)): 8 µg/mL (≈ 23.7 µM)
MBC (NRS123 (MRSA USA400)): 16 µg/mL (≈ 47.4 µM)
MBC (NRS384 (MRSA USA300)): 4 µg/mL (≈ 11.9 µM)
MBC (NRS383 (MRSA USA200)): 32 µg/mL (≈ 94.9 µM)
MBC (VRS12 (VRSA)): 64 µg/mL (≈ 190 µM)
MBC (VRS10 (VRSA)): 64 µg/mL (≈ 190 µM)

MIC (S. aureus NRS107): 8 µg/mL (≈ 20.3 µM)
MIC (S. aureus ATCC 6538): 8 µg/mL (≈ 20.3 µM)
MIC (MRSA NRS386): 8 µg/mL (≈ 20.3 µM)
MIC (MRSA NRS384 (USA300)): 8 µg/mL (≈ 20.3 µM)
MIC (MRSA NRS119): 8 µg/mL (≈ 20.3 µM)
MIC (MRSA NRS123 (USA400)): 8 µg/mL (≈ 20.3 µM)
MIC (MRSA NRS385): 8 µg/mL (≈ 20.3 µM)
MIC [2]: 8 µg/mL (≈ 20.3 µM)
MIC [3]: 8 µg/mL (≈ 20.3 µM)
MIC [4]: 8 µg/mL (≈ 20.3 µM)
MIC [5]: 8 µg/mL (≈ 20.3 µM)
MIC (MRSA (2658 RCMB)): 1.17 µg/mL (≈ 2.97 µM)
MIC (VRS12 (VRSA); read-out: MIC): 8 µg/mL (≈ 20.3 µM)
MIC (VRS10 (VRSA); read-out: MIC): 8 µg/mL (≈ 20.3 µM)
SMILES: Cc1nc(-c2ccc(C(C)(C)C)cc2)sc1-c1ccnc(NC(=N)N(C)C)n1 [Compound 58, 3-(4-(2-(4-(tert-Butyl)phenyl)-4-methylthiazol-5-yl)pyrimidin-2-yl)-1,1-dimethylguanidine]
tolerability to human colorectal cells, in words [1]: intolerable
MBC (S. aureus NRS107): 8 µg/mL (≈ 20.3 µM)
bactericidal / bacteriostatic behaviour in time-kill assay, in words (MRSA (USA300); MRSA): rapid bactericidal activity
time to completely eradicate the MRSA inoculum (MRSA (USA300); t-butyl series): within two to four hours
MBC (S. aureus ATCC 6538): 8 µg/mL (≈ 20.3 µM)
MBC (MRSA NRS386): 8 µg/mL (≈ 20.3 µM)
MBC (MRSA NRS384 (USA300)): 8 µg/mL (≈ 20.3 µM)
MBC (MRSA NRS119): 8 µg/mL (≈ 20.3 µM)
MBC (MRSA NRS123 (USA400)): 8 µg/mL (≈ 20.3 µM)
MBC (MRSA NRS385): 8 µg/mL (≈ 20.3 µM)
MBC [3]: 8 µg/mL (≈ 20.3 µM)
MBC [4]: 8 µg/mL (≈ 20.3 µM)
MBC (VRS12 (VRSA)): 8 µg/mL (≈ 20.3 µM)
MBC (VRS10 (VRSA)): 8 µg/mL (≈ 20.3 µM)

Source: patent publication US10414759B2, “Phenylthiazoles and uses thereof” (Purdue Research Foundation, priority 2017, dated 2019)
